# From US10745387B2, “Crystalline form of (2S,3S,6S,7R,10R,E)-7,10-dihydroxy-3,7-dimethyl-12-oxo-2-((R,2E,4E)-6-(piridin-2-yl)hepta-2,4-dien-2-yl)oxacyclododec-4-en-6-yl-4-methylpiperazine-1-carboxylate and methods of use thereof” (EISAI R&D MANAGEMENT CO., LTD., priority 2015, dated 2020)
# What was measured:
# [1] = tested on: WiDr-R cells (SF3B1 R1074H mutation); conditions: cited from earlier work
# [2] = tested on: WiDr cells (wildtype SF3B1); test: Cell viability assay (CellTiter-Glo), WiDr; assay type: cell-based; conditions: Homo sapiens, 72 hr, ATP (CellTiter-Glo)
# Description: (§1) Cells (WiDr and Panc05.04 obtained from ATCC) were seeded in 96-well plates, with 2000 cells/1004/well, and incubated overnight. Spent media was removed, and fresh, media containing 9 different concentrations of compound (1004/well) were added, with DMSO concentration from compound stock solution adjusted to be 0.1%. Each compound treatment was done in duplicate or triplicate at each concentration.
# (§2) Another plate with cells seeded was dedicated as a time zero (Tz) plate, to which was added 0.1% DMSO in media (1004/well) followed by CellTiter-Glo® reagent (Promega Corporation, Madison, Wis.) (504/well) for ATP measurement as a surrogate of cell viability. Average value from measurement of multiple wells of this plate is used as Tz.
# (§3) Compound-treated plates were incubated for 72 hr at 37° C. Then, CellTiter-Glo® reagent (504/well) was added and ATP was measured. […]
# (§4) Percentage growth inhibition/Percentage viability was calculated as: [(Ti−Tz)/(C−Tz)]×100 for concentrations for which Ti>/=Tz [(Ti−Tz)/Tz]×100 for concentrations for which Ti<Tz. *time zero (Tz), control growth (C), and test growth in the presence of compound (Ti) Percentage growth inhibition/Percentage viability are plotted versus compound concentration to determine Emax. […]
# [3] = tested on: splicing of Ad2 pre-mRNA in HeLa nuclear extract; test: In vitro splicing (IVS) biochemical assay; conditions: 90 min, 30° C.
# Description: Biotin-labeled pre-mRNA of an adenovirus type 2 construct with a deletion of intervening sequence (Ad2) (Berg, M. G., et al. 2012 Mol. Cell Bio., 32(7):1271-83) was prepared by in vitro transcription. The Ad2 construct containing Exon 1 (41 nucleotides), Intron (231 nucleotides), and Exon 2 (72 nucleotides) was generated by gene synthesis and cloned into the EcoRI and XbaI sites of pGEM®-3Z vector (Promega) by Genewiz® (South Plainfield, N.J.). The plasmid was then linearized by XbaI digestion and purified. In vitro transcription and purification of transcribed pre-mRNA were performed using the MEGAscript® T7 transcription kit (Invitrogen™, Life Technologies™, Grand Island, N.Y.) and MEGAclear™ transcription clean-up kit (Invitrogen™, Life Technologies™, Grand Island, N.Y.), respectively, following the manufacturer's instructions. […]
# In vitro splicing assay was performed at 30° C. in 254 reaction mixtures containing 95 μg HeLa nuclear extract (Promega Corporation, Madison, Wis.), 47 nM Ad2 pre-mRNA, 25U RNasin RNase inhibitor (Promega Corporation, Madison, Wis.), 1×SP buffer (0.5 mM ATP, 20 mM creatine phosphate, 1.6 mM MgCl2), and compounds in DMSO (with 1% final concentration of DMSO). […] The amount of spliced RNA was quantified by measuring the band fluorescent intensity using LI-COR Image Studio software. […]
# [4] = tested on: Panc 05.04 (mt SF3B1 cells); test: Cell viability assay (CellTiter-Glo), Panc 05.04; assay type: cell-based; conditions: 72 hr
# Description: as §1, §2, §3, §4
# [5] = tested on: WiDr-R cells (SF3B1 R1074H mutation); test: Cell viability assay, resistant WiDr-R counter-screen; assay type: cell-based; conditions: 72 hr, ATP (CellTiter-Glo)
# [6] = Solid state stability study; assay type: physicochemical
# Description: Solid state stability studies were carried out on crystalline Form 1 under the following conditions: • Stored at 25° C. for 7 and 14 days • Stored at 40° C./75% RH (open) for 7 and 14 days • Stored at 60° C. for 7 and 14 days
molecule,measurement,setting,value
pladienolide B,Growth inhibition in WiDr-R cells (resistance),[1],resistant
"C/C(=C\C=C\[C@@H](C)c1ccccn1)[C@H]1OC(=O)C[C@H](O)CC[C@@](C)(O)[C@@H](OC(=O)N2CCN(C)CC2)/C=C/[C@@H]1C [Compound 1, (2S,3S,6S,7R,10R,E)-7,10-dihydroxy-3,7-dimethyl-12-oxo-2-((R,2E,4E)-6-(pyridin-2-yl)hepta-2,4-dien-2-yl)oxacyclododec-4-en-6-yl 4-methylpiperazine-1-carboxylate]",GI50,[2],31.8 nM
same,IC50,[3],1330 nM
same,GI50,[4]; ATP (CellTiter-Glo),32.7 nM
same,Emax,[4]; negative value indicates cellular lethality,-66.1%
same,GI50,[5],> 1000 nM
"CCC(O)C(C)C1OC1CC(C)(O)/C=C/C=C(\C)C1OC(=O)CC(O)CCC(C)(O)C(OC(=O)N2CCN(C3CCCCCC3)CC2)/C=C/C1C (stereo not drawn) [Compound E7107, (8E,12E,14E)-7-((4-cycloheptylpiperazin-1-yl)carbonyl)oxy-3,6,16,21-tetrahydroxy-6,10,12,16,20-pentamethyl-18,19-epoxytricosa-8,12,14-trien-11-olide]",Growth inhibition in WiDr-R cells (resistance),[1],resistant
"C/C(=C\C=C\[C@@H](C)c1ccccn1)[C@H]1OC(=O)C[C@H](O)CC[C@@](C)(O)[C@@H](OC(=O)N2CCN(C)CC2)/C=C/[C@@H]1C [crystalline Form 1, (2S,3S,6S,7R,10R,E)-7,10-dihydroxy-3,7-dimethyl-12-oxo-2-((R,2E,4E)-6-(pyridin-2-yl)hepta-2,4-dien-2-yl)oxacyclododec-4-en-6-yl 4-methylpiperazine-1-carboxylate]",Degradation on storage (solid state stability),"[6]; 25° C., 40° C./75% RH (open), 60° C., each for 7 and 14 days",No significant degradation
same,Change in crystallinity (XRPD and TGA-DSC),[6]; 40° C./75% RH (open) for 14 days,no change in crystallinity
